Laboratory results reported in PubChem BioAssay AID1919004 (Molecular Pharmacology Branch, DTP, NCI, 2023).

Test system: 883617-216-R-J1-PDC complex spheroids, growth, % test/control
Test: Anticancer human tumor 883617-216-R-J1-PDC patient-derived bladder carcinoma cell line growth inhibition [AhR]
Conditions: for IC50: curve of first compound; for viability, T/C: stronger effect = lower value
Method in brief: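 Complex tumor spheroids co-cultured with HUVEC and human MSC stroma; AhR antagonists tested in combination with standard-of-care and investigational agents. Top concentration at or near clinical Cmax (else 10 microM), half-log dilutions; growth expressed as percent test/control.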

[1] = second compound 0.1 µM, first compound 0.0316 µM
[2] = second compound 0.1 µM, first compound 0.1 µM
[3] = second compound 0.1 µM, first compound 0.316 µM
[4] = second compound 0.1 µM, first compound 1 µM
[5] = second compound 0.316 µM, first compound 0.0316 µM
[6] = second compound 0.316 µM, first compound 0.1 µM
[7] = second compound 0.316 µM, first compound 0.316 µM
[8] = second compound 0.316 µM, first compound 1 µM
[9] = second compound 1 µM, first compound 0.0316 µM
[10] = second compound 1 µM, first compound 0.1 µM
[11] = second compound 1 µM, first compound 0.316 µM
[12] = second compound 1 µM, first compound 1 µM
[13] = second compound 3.16 µM, first compound 0.0316 µM
[14] = second compound 3.16 µM, first compound 0.1 µM
[15] = second compound 3.16 µM, first compound 0.316 µM
[16] = second compound 3.16 µM, first compound 1 µM
[17] = second compound 10 µM, first compound 0.0316 µM
[18] = second compound 10 µM, first compound 0.1 µM
[19] = second compound 10 µM, first compound 0.316 µM
[20] = second compound 10 µM, first compound 1 µM
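Note: exposure lasted 7 days after dosing on day 3 of spheroid growth.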

Row | Structure (SMILES) | IC50 (second compound 0.1 µM) [µM] | IC50 (second compound 0.316 µM) [µM] | IC50 (second compound 1 µM) [µM] | IC50 (second compound 3.16 µM) [µM] | IC50 (second compound 10 µM) [µM] | viability, T/C [1] [%] | viability, T/C [2] [%] | viability, T/C [3] [%] | viability, T/C [4] [%] | viability, T/C [5] [%] | viability, T/C [6] [%] | viability, T/C [7] [%] | viability, T/C [8] [%] | viability, T/C [9] [%] | viability, T/C [10] [%] | viability, T/C [11] [%] | viability, T/C [12] [%] | viability, T/C [13] [%] | viability, T/C [14] [%] | viability, T/C [15] [%] | other results
1 | CC1COCCN1c1cc(-c2ccnn2C)c2ccnc(-c3ccn[nH]3)c2n1 (stereo not given) + CC(CO)NC(=O)c1cc(-c2ccc(Cl)cc2)nn(-c2cnn(C)c2)c1=O | > 1 | > 1 | > 1 | > 1 | > 1 | 55.6 | 87.4 | 73.9 | 56.8 | 88.2 | 63.8 | 48.5 | 53.1 | 114 | 100 | 53.5 | 54 | 72.8 | 73.2 | 61.7 | viability, T/C (second compound 0.1 µM, first compound 0.00316 µM): 70.5%; viability, T/C (second compound 0.1 µM, first compound 0.01 µM): 80.7%; viability, T/C (second compound 0.316 µM, first compound 0.00316 µM): 80.9%; viability, T/C (second compound 0.316 µM, first compound 0.01 µM): 85.6%; viability, T/C (second compound 1 µM, first compound 0.00316 µM): 88.8%; viability, T/C (second compound 1 µM, first compound 0.01 µM): 82.5%; viability, T/C (second compound 3.16 µM, first compound 0.00316 µM): 58.3%; viability, T/C (second compound 3.16 µM, first compound 0.01 µM): 69.8%; viability, T/C [16]: 53.2%; viability, T/C (second compound 10 µM, first compound 0.00316 µM): 65.8%; viability, T/C (second compound 10 µM, first compound 0.01 µM): 64.2%; viability, T/C [17]: 72.8%; viability, T/C [18]: 53.8%; viability, T/C [19]: 54.4%; viability, T/C [20]: 72%
2 | CC1COCCN1c1cc(C2(S(C)(=N)=O)CC2)nc(-c2ccnc3[nH]ccc23)n1 (stereo not given) + CC(CO)NC(=O)c1cc(-c2ccc(Cl)cc2)nn(-c2cnn(C)c2)c1=O | > 10 | > 10 | > 10 | > 10 | > 10 | 155 | 133 | 120 | 78.7 | 73.3 | 143 | 107 | 56.3 | 142 | 102 | 152 | 121 | 103 | 94.4 | 132 | viability, T/C (second compound 0.1 µM, first compound 3.16 µM): 86.9%; viability, T/C (second compound 0.1 µM, first compound 10 µM): 108%; viability, T/C (second compound 0.316 µM, first compound 3.16 µM): 70.1%; viability, T/C (second compound 0.316 µM, first compound 10 µM): 72.1%; viability, T/C (second compound 1 µM, first compound 3.16 µM): 103%; viability, T/C (second compound 1 µM, first compound 10 µM): 77.5%; viability, T/C [16]: 132%; viability, T/C (second compound 3.16 µM, first compound 3.16 µM): 86.2%; viability, T/C (second compound 3.16 µM, first compound 10 µM): 66.5%; viability, T/C [17]: 127%; viability, T/C [18]: 101%; viability, T/C [19]: 125%; viability, T/C [20]: 153%; viability, T/C (second compound 10 µM, first compound 3.16 µM): 107%; viability, T/C (second compound 10 µM, first compound 10 µM): 114%
